Read-outs that look alike come from different tables or passages of the source.
Experiments:
HTT mRNA = experiment: RT-qPCR splicing assay, HTT canonical junction (CJ) and alternative junction (AJ) mRNA; type: cell-based, human; details: Homo sapiens; for AC50: increase in HTT alternative junction (AJ) mRNA, read-out: HTT AJ AC50
Method in brief: (§1)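 Splicing switches were read by TaqMan RT-qPCR on lysates, quantifying exon-exon junctions of the canonical and alternative-exon isoforms. Lysates came from K562 (GAPDH/GUSB reference) or A673 (PPIA reference) cells exposed 24 h to compound in 11 threefold steps from 10 uM, with DMSO ≤0.25%.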

[1] = system: K562 (human chronic myelogenous leukemia) cells; experiment: Cell Titer Glo 2.0 cell viability assay; type: cell-based; details: Homo sapiens, K562, 72 h, K562 cells, 72 hours, Cell Titer Glo 2.0; read-out: K562 GI50
SMN2 mRNA = experiment: RT-qPCR splicing assay, SMN2 canonical junction (CJ) mRNA; type: cell-based, human; details: Homo sapiens; Table 5 panel; canonical junction qPCR; compound concentration having 50% response in CJ decrease; read-out: SMN2 IC50 (decrease in CJ mRNA levels)
Method in brief: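 K562/A673 cells, 11-pt 3-fold compound titration from 10 uM final, DMSO ≤0.25%, 24 h 37 °C 5% CO2; lyse (DNase I or Igepal/Tris buffer pH 7.4); RT-qPCR for CJ isoform vs housekeeping gene (GAPDH/GUSB/PPIA).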

MYB mRNA = experiment: RT-qPCR splicing assay, MYB canonical junction (CJ) and alternative junction (AJ) mRNA; type: cell-based, human; details: Homo sapiens; for AC50: increase in MYB alternative junction (AJ) mRNA, read-out: MYB AJ AC50
Method in brief: as §1

[2] = decrease in HTT canonical junction (CJ) mRNA, RT-qPCR, read-out: HTT CJ IC50
[3] = Table 5 panel, canonical junction qPCR, compound concentration having 50% response in CJ decrease, read-out: HTT IC50 (decrease in CJ mRNA levels)
[4] = Table 5 panel, canonical junction qPCR, compound concentration having 50% response in CJ decrease, read-out: MYB IC50 (decrease in CJ mRNA levels)
[5] = decrease in MYB canonical junction (CJ) mRNA, RT-qPCR, read-out: MYB CJ IC50

| SMILES | IC50 (HTT mRNA; [2]) | IC50 (HTT mRNA; [3]) | GI50 [1] | IC50 (SMN2 mRNA) | IC50 (MYB mRNA; [4]) | IC50 (MYB mRNA; [5]) | AC50 (HTT mRNA; RT-qPCR) | AC50 (MYB mRNA; RT-qPCR) |
| --- | --- | --- | --- | --- | --- | --- | --- | --- |
| Cc1cn2cc(-c3ccc4c(=O)n(C5CCN(C)CC5)cnc4c3)ncc2n1 [Compound 308] | 1000 to 10000 nM | 1000 to 10000 nM | 1000 to 10000 nM | 100 to 1000 nM | 1000 to 10000 nM | 1000 to 10000 nM | 1000 to 10000 nM | 1000 to 10000 nM |
| Cc1cn2cc(-c3ccc4c(=O)n(C5CCNCC5)cnc4c3)cc(Cl)c2n1 [Compound 291] | 100 to 1000 nM | 100 to 1000 nM | < 100 nM | < 100 nM | 100 to 1000 nM | < 100 nM | 100 to 1000 nM | 100 to 1000 nM |
| O=c1c2ccc(-c3cn[nH]c3)cc2ncn1C1CCNCC1 [Compound 284] | > 10000 nM | > 10000 nM | > 10000 nM | 1000 to 10000 nM | > 10000 nM | > 10000 nM | > 10000 nM | > 10000 nM |
| CN1CCC(n2cnc3cc(-c4cn[nH]c4)ccc3c2=O)CC1 [Compound 299] | > 10000 nM | > 10000 nM | > 10000 nM | > 10000 nM | > 10000 nM | > 10000 nM | > 10000 nM | > 10000 nM |
| Cc1cn2nc(-c3ccc4c(c3)CCN([C@@H]3CCN[C@H](C)C3)C4=O)cc(C)c2n1 [Compound 281] | 1000 to 10000 nM | 1000 to 10000 nM | 1000 to 10000 nM | 100 to 1000 nM | 1000 to 10000 nM | 1000 to 10000 nM | 1000 to 10000 nM | 1000 to 10000 nM |
| Cc1cn2cc(-c3ccc4c(=O)n([C@H]5CCN[C@H](C)C5)cnc4c3)cc(F)c2n1 [Compound 296] | 100 to 1000 nM | 100 to 1000 nM | 100 to 1000 nM | < 100 nM | < 100 nM | < 100 nM | 100 to 1000 nM | < 100 nM |
| Cc1cn2nc(-c3ccc4c(=O)n(C5CCNC6(CC6)C5)ncc4c3)cc(C)c2n1 (stereo not drawn) [Compound 274] | < 100 nM | < 100 nM | 100 to 1000 nM | < 100 nM | < 100 nM | < 100 nM | < 100 nM | < 100 nM |
| Cc1nc2c(F)cc(-c3ccc4c(=O)n(C5CCN(C)CC5)cnc4c3)cc2s1 [Compound 301] | 1000 to 10000 nM | 1000 to 10000 nM | 1000 to 10000 nM | 1000 to 10000 nM | 1000 to 10000 nM | 1000 to 10000 nM | 1000 to 10000 nM | 1000 to 10000 nM |
| Cc1cn2nc(-c3ccc4c(c3)CCN(C3CCN(C)CC3)C4=O)cc(C)c2n1 [Compound 268] | 1000 to 10000 nM | 1000 to 10000 nM | 1000 to 10000 nM | < 100 nM | 1000 to 10000 nM | 100 to 1000 nM | 1000 to 10000 nM | 1000 to 10000 nM |
| Cc1nc2c(F)cc(-c3ccc4c(=O)n(C5CCN(C)CC5)cnc4c3)cc2o1 [Compound 300] | 1000 to 10000 nM | 100 to 1000 nM | 1000 to 10000 nM | < 100 nM | 1000 to 10000 nM | 100 to 1000 nM | 100 to 1000 nM | 1000 to 10000 nM |
| Cn1cc2cc(-c3cc(F)c4c(=O)n(C5CCNCC5)cnc4c3)cc(C#N)c2n1 [Compound 316] | 100 to 1000 nM | 100 to 1000 nM | 100 to 1000 nM | < 100 nM | < 100 nM | < 100 nM | 100 to 1000 nM | < 100 nM |
| Cc1cn2cc(-c3ccc4c(=O)n(C5CCNCC5)cnc4c3)cc(C(F)(F)F)c2n1 [Compound 306] | 1000 to 10000 nM | 1000 to 10000 nM | 100 to 1000 nM | < 100 nM | 1000 to 10000 nM | > 10000 nM | 1000 to 10000 nM | 1000 to 10000 nM |
| Cc1cn2nc(-c3cc(F)c4c(=O)n(C5CCNC6(CC6)C5)ncc4c3)cc(C)c2n1 (stereo not drawn) [Compound 312] | < 100 nM | < 100 nM | 100 to 1000 nM | < 100 nM | < 100 nM | < 100 nM | < 100 nM | < 100 nM |
| Cc1cn2nc(-c3ccc4c(c3)CCN(C3CCNC(C)(C)C3)C4=O)cc(C)c2n1 (stereo not drawn) [Compound 267] | 100 to 1000 nM | 1000 to 10000 nM | 1000 to 10000 nM | < 100 nM | 1000 to 10000 nM | < 100 nM | 1000 to 10000 nM | 1000 to 10000 nM |
| Cc1cn2nc(-c3ccc4c(=O)n(C5CCN(C)CC5)cnc4c3)cc2c(C)n1 [Compound 303] | 1000 to 10000 nM | 1000 to 10000 nM | 1000 to 10000 nM | 100 to 1000 nM | 1000 to 10000 nM | 1000 to 10000 nM | 1000 to 10000 nM | 1000 to 10000 nM |
| Cc1cn2cc(-c3ccc4c(=O)n([C@@H]5CCN[C@H](C)C5)cnc4c3)cc(F)c2n1 [Compound 295] | 1000 to 10000 nM | 1000 to 10000 nM | 100 to 1000 nM | < 100 nM | 100 to 1000 nM | 100 to 1000 nM | 1000 to 10000 nM | 100 to 1000 nM |
| Cc1cn2nc(-c3ccc4c(=O)n([C@@H]5CCN(C)[C@H](C)C5)ncc4c3)cc(C)c2n1 [Compound 277] | 100 to 1000 nM | 100 to 1000 nM | 1000 to 10000 nM | < 100 nM | 100 to 1000 nM | 100 to 1000 nM | 100 to 1000 nM | 100 to 1000 nM |
| Cn1cc2cc(-c3cc(F)c4c(=O)n(C5CCNCC5)cnc4c3)c(F)cc2n1 [Compound 315] | 1000 to 10000 nM | 1000 to 10000 nM | 1000 to 10000 nM | < 100 nM | 100 to 1000 nM | 100 to 1000 nM | 1000 to 10000 nM | 100 to 1000 nM |

Now from value to compound, other results behind:

| IC50 (HTT mRNA; [2]) | IC50 (HTT mRNA; [3]) | GI50 [1] | IC50 (SMN2 mRNA) | IC50 (MYB mRNA; [4]) | IC50 (MYB mRNA; [5]) | SMILES | AC50 (HTT mRNA; RT-qPCR) | AC50 (MYB mRNA; RT-qPCR) |
| --- | --- | --- | --- | --- | --- | --- | --- | --- |
| 1000 to 10000 nM | 1000 to 10000 nM | 1000 to 10000 nM | 1000 to 10000 nM | 1000 to 10000 nM | 1000 to 10000 nM | Cc1ncc(-c2ccc3c(=O)n(C4CCNCC4)cnc3c2)cn1 [Compound 354, 7-(2-methylpyrimidin-5-yl)-3-(piperidin-4-yl)quinazolin-4(3H)-one] | 1000 to 10000 nM | 1000 to 10000 nM |
| 100 to 1000 nM | 100 to 1000 nM | 100 to 1000 nM | < 100 nM | < 100 nM | < 100 nM | Cc1cn2cc(-c3cc(F)c4c(=O)n([C@H]5CCN[C@@H](C)C5)cnc4c3)cc(F)c2n1 (relative stereo) [Compound 343, cis-5-fluoro-7-(8-fluoro-2-methylimidazo[1,2-a]pyridin-6-yl)-3-(2-methylpiperidin-4-yl)quinazolin-4(3H)-one] | 100 to 1000 nM | < 100 nM |
| > 10000 nM | > 10000 nM | > 10000 nM | 1000 to 10000 nM | > 10000 nM | > 10000 nM | COc1cc(-c2cc(F)c3c(=O)n(C4CCNCC4)cnc3c2)cnn1 [Compound 320] | > 10000 nM | > 10000 nM |
| < 100 nM | < 100 nM | 100 to 1000 nM | < 100 nM | < 100 nM | < 100 nM | Cc1cn2nc(-c3cc(F)c4c(=O)n(C5CCNC6(CC6)C5)cnc4c3)cc(C)c2n1 (stereo not drawn) [Compound 351] | < 100 nM | < 100 nM |
| 1000 to 10000 nM | 1000 to 10000 nM | 100 to 1000 nM | < 100 nM | 100 to 1000 nM | 1000 to 10000 nM | Cc1cn2cc(-c3cc(F)c4c(=O)n(C5CCNCC5)cnc4c3)nc2c(C)n1 [Compound 319] | 1000 to 10000 nM | 100 to 1000 nM |
| < 100 nM | 100 to 1000 nM | 100 to 1000 nM | < 100 nM | < 100 nM | < 100 nM | Cc1cn2nc(-c3cc(C)c4c(=O)n(C5CCNCC5)cnc4c3)cc(C)c2n1 [Compound 355] | 100 to 1000 nM | < 100 nM |
| 1000 to 10000 nM | 1000 to 10000 nM | 100 to 1000 nM | < 100 nM | < 100 nM | 1000 to 10000 nM | CNc1cc(-c2cc(C)c3nc(C)cn3n2)cc2ncn(C3CCNCC3)c(=O)c12 [Compound 359, 7-{2,8-dimethylimidazo[1,2-b]pyridazin-6-yl}-5-(methylamino)-3-(piperidin-4-yl)quinazolin-4-one] | 1000 to 10000 nM | < 100 nM |
| > 10000 nM | > 10000 nM | > 10000 nM | > 10000 nM | > 10000 nM | > 10000 nM | Cc1cn2cc(-c3cc(F)c4c(=O)n([C@H]5CNCC[C@@H]5O)cnc4c3)cc(F)c2n1 [Compound 348, 5-fluoro-7-{8-fluoro-2-methylimidazo[1,2-a]pyridin-6-yl}-3-[(3S,4S)-4-hydroxypiperidin-3-yl]quinazolin-4-one] | > 10000 nM | > 10000 nM |
| 100 to 1000 nM | 100 to 1000 nM | 100 to 1000 nM | < 100 nM | 100 to 1000 nM | 100 to 1000 nM | Cc1cn2cc(-c3cc(F)c4c(=O)n(C5CCCNCC5)cnc4c3)cc(F)c2n1 (stereo not drawn) [Compound 353, 3-(azepan-4-yl)-5-fluoro-7-{8-fluoro-2-methylimidazo[1,2-a]pyridin-6-yl}quinazolin-4-one] | 100 to 1000 nM | 100 to 1000 nM |

Reference: patent US20250332173A1, “COMPOUNDS AND METHODS FOR MODULATING NUCLEIC ACID SPLICING” (REMIX THERAPEUTICS INC., priority 2021, published 2025)
